Data from PMC7796031, “Studies of Coumarin Derivatives for Constitutive Androstane Receptor (CAR) Activation” (Molecules, 2020).

Assays:
[1] = test system: phosphoenopyruvate carboxykinse (PEPCK) mRNA expression; experiment: PEPCK mRNA expression induced by dexamethasone and 8-bromo-cAMP in H4IIE cells; type: cell-based, rat; conditions: dexamethasone (500 nM) + 8-bromo-cAMP, test compounds as printed
Protocol: S21 Effects of scoparone, 50 (PLH), and 6 on phosphoenopyruvate carboxykinse (PEPCK) mRNA expression induced by dexamethasone and 8-bromo-cAMP.
A quantified result of dexamethasone (500 nM) and 8-bromo-cAMP (100µM) induced PEPCK mRNA expression in the presence or absence of scoparone, 50 (PLH) and 6 at 0.78 µM was shown. Insulin (10 nM) was served as an experimental control. Quantified data was presented as mean ± S.E.M. (n = 4). **P < 0.01 and ***P < 0.001 when compared with induction control (None).
PEPCK mRNA could be induced by dexamethasone and 8-bromo-cAMP after 3hr. The presence of insulin […]
Scoparone, at 0.78 µM, can suppress PEPCK
In contrast, both 50 (PLH) and 6 could also suppress PEPCK
Cell culture: The rat H4IIE cells were cultured in Dulbecco’s Modified Eagle’sMedium (DMEM) containing 1 g/L glucose, 5% (v/v) fetal calf serum (FBS) and 1% (v/v) antibiotics (100 U/mL penicillin and 0.1 g/L streptomycin). Cultured cells were maintained at 37 ◦C in an atmosphere of 5% CO2 and 95% air.
The measurement of PEPCK gene expression: H4IIE cells were seeded into 6 cm dish and allowed for the attachment. After serum starvation overnight, cells were treated with various conditions described in the figure legend. After treatment, total RNA of each treatment was extracted using TRI-reagent according to the manufacturer’s instructions. The pelleted RNA was dissolved in distilled water, quantified with NanoDrop™ 1000 Spectrophotometer (Thermo Fisher Scientific, USA) and stored at −70 ◦C. Total RNA (1µg) was reverse transcribed to generate templates. 50 ng of cDNA was employed for further PCR. The sequences of […]
primers for β-actin: 5’-[…]- 3’ and 5’-[…]-3’ and […]
(1 picture or pasted object on this page, not shown here)

methyl-PP2Ac = experiment: PP2Ac methylation status in Hep3B (western blot); type: cell-based, human; conditions: Hep3B, 5, 10, 20 and 40 μM, 24 h
Protocol: Figure 5 The concentration-dependent study of PP2Ac methylation status under 6,7-diprenoxycoumarin (50) treatment. Hep3B cells (1 × 10^6) were treated with 50 (5, 10, 20 and 40 μM) for 24 h. Treated cell lysates were prepared as described in the Methods section and methyl-PP2Ac expression was analyzed by western blot.
1 × 10^6 cells were seeded in a 10 cm plate, incubated at 37 °C for overnight and treated with various concentrations of compounds for the indicated times. After incubation, the culture medium was removed and washed twice with 2 mL ice-cold 1× PBS. Three hundred μL of protein lysis buffer (150 mM NaCl, 50 mM Tris-HCl (pH 7.4), 1% SDS, 1% Triton X-100, 1 mM PMSF) was added into each plate, scraped with a rubber policeman, collected into a premarked microtube and the incubated in ice for 1 h, sonicated by Ultrasonic Cell Disruptor for three time at 5 s each. The cell lysated was cleared by centrifugation at 12,000× g for 15 min at 4 °C. Supernatants were transferred into a fresh marked microtube and stored at −20 °C for future use.
Protein concentration of each sample was determined using a BCA Protein Assay Kit (Pirece®, Thermo Scientific). Different percentages of SDS-PAGE gels were prepared according to the molecular size of proteins of interest. […] The emitted fluorescence from the membrane was caught on a LAS-4000 biomolecule imager (FUJI.).

UGT1A1 = experiment: mRNA expression of UGT1A1 in Hep3B (RT-PCR); type: cell-based, human; conditions: 10 μM, 2, 4, 6, 8 and 10 h
Protocol: Figure 6 The time course study of mRNA expression of MRP2 and UGT1A1 after 10 μM 6,7-diprenoxycoumarin treatment. Hep3B cells were treated with 10 μM 50 for 2, 4, 6, 8 and 10 h. The total mRNA was obtained and the expression of downstream genes were analyzed with PCR. The ratio of MRP2 to GAPDH was calculated using Image J and normalization.
Total RNA was isolated from control and treated cells using a TRIzol reagent (Invitrogen) according to the manufacturer’s instruction. The RNA concentration was measured by a spectrophotometer and equal amounts of total RNA (2 μg) were reverse—transcribed using a RevertAid First Strand cDNA Synthesis Kit (K1622, Fermentas, Hanover, MD, USA). Amplification of cDNA was performed in the PCR reaction buffer (0.2 mM dNTP, 1.5 mM MgCl2, and 0.5 μM of each primer) containing 2.5 units of Taq DNA polymerase. The PCR products were resolved by agarose electrophoresis, visualized by ethidium bromide straining and quantified by Image J®. The PCR cycling procedures and sequences of primers are listed below. PCR conditions: (1) UGT1A1: 94 °C, 30 s; 62 °C, 45 s; 72 °C, 30 s; 27 cycles; (2) MRP2: 94 °C, 30 s; 62 °C, 45 s; 72 °C, 30 s; 27 cycles; (3) CAR: 94 °C, 30 s; 59 °C, 45 s; 72 °C, 30 s; 35 cycles; (4) GADPH: 94 °C, 30 s; 62 °C, 45 s; 72 °C, 30 s; 27 cycles; (4) gtPBREM: 94 °C, 30 s; 63 °C, 30 s; 68 °C, 60 s; 30 cycles.

SMILES | suppression of PEPCK mRNA induction [1] | methyl-PP2Ac (active form of PP2Ac) (methyl-PP2Ac) | mRNA expression level of UGT1A1 (UGT1A1)
CC(C)=CCOc1cc2ccc(=O)oc2cc1OCC=C(C)C [Compound 50, 6,7-diprenoxycoumarin] | less potent | increased | enhanced
COc1cc2ccc(=O)oc2cc1OC [Compound 39, scoparone] | level similar to insulin |  | 
